Some results are limits rather than exact numbers.

Data set [1] deals with DENV-2 16681 strain labeled with eGFP. The data set is described as follows: DENV-2 antiviral assay (eGFP fluorescence read-out in Vero cells). The settings on record: DENV-2 16681 eGFP, MOI 0.5, 3 days. It counts as cell-based, Dengue virus. How it is done:
The antiviral activity of all the compounds of the invention was tested against the DENV-2 16681 strain which was labeled with enhanced green fluorescent protein (eGPF). The culture medium consists of minimal essential medium supplemented with 2% of heat-inactivated fetal calf serum, 0.04% gentamycin (50 mg/mL) and 2 mM of L-glutamine. Vero cells, obtained from ECACC, were suspended in culture medium and 25 μL was added to 384-well plates (2500 cells/well), which already contain the antiviral compounds. Typically, these plates contain a 5-fold serial dilution of 9 dilution steps of the test compound at 200 times the final concentration in 100% DMSO (200 nL). […] Finally, each plate contains wells which are assigned as virus controls (containing cells and virus in the absence of compound), cell controls (containing cells in the absence of virus and compound) and medium controls (containing medium in the absence of cells, virus and compounds). To the wells assigned as medium control, 25 μL of culture medium was added instead of Vero cells. Once the cells were added to the plates, the plates were incubated for 30 minutes at room temperature to allow the cells to distribute evenly within the wells. Next, the plates were incubated in a fully humidified incubator (37° C., 5% CO2) until the next day. Then, DENV-2 strain 16681, labeled with eGFP, was added at a multiplicity of infection (MOI) of 0.5. Therefore, 15 μL of virus suspension was added to all the wells containing test compound and to the wells assigned as virus control. In parallel, 15 μL of culture medium was added to the medium and cell controls. Next, the plates were incubated for 3 days in a fully humidified incubator (37° C., 5% CO2). At the day of the read out, the eGFP fluorescence was measured using an automated fluorescence microscope at 488 nm (blue laser). Using an in-house LIMS system, inhibition dose response curves for each compound were calculated and the half maximal effective concentration (EC50) was determined. Therefore, the percent inhibition (I) for every test concentration is calculated using the following formula: I=100*([…])/(SVC−SCC); ST, SCC and SVC are the amount of eGFP signal in the test compound, cell control and virus control wells, respectively. The EC50 represents the concentration of a compound at which the virus replication is inhibited with 50%, as measured by a 50% reduction of the eGFP fluorescent intensity compared to the virus control. The EC50 is calculated using linear interpolation (Table 1).

Data set [2] can be described thus: in vitro. The settings on record: African green monkey.
For another data set, the system named is DENV-4 strain H241. The data set is described as follows: Tetravalent RT-qPCR assay Protocol A, serotype 4 H241. It counts as cell-based. The settings on record: Dengue virus, DENV4, 72 h; RT-qPCR serotype 4 H241, Vero cells, day 3. The protocol: (§1) The antiviral activity of the compounds of the invention was tested against DENV-1 strain TC974#666 (NCPV), DENV-2 strain 16681, DENV-3 strain H87 (NCPV) and DENV-4 strains H241 (NCPV) and EDEN (SG/06K2270DK1/2005; GenBank accession number QG398256) in a RT-qPCR assay. Therefore, Vero cells were infected with either DENV-1, or -2, or -3, or -4 in the presence or absence of test compounds. At day 3 post-infection, the cells were lysed and cell lysates were used to prepare cDNA of both a viral target (the 3′UTR of DENV; Table 2) and a cellular reference gene (β-actin, Table 2). Subsequently, a duplex real time PCR was performed on a Lightcycler480 instrument. The generated Cp value is inversely proportional to the amount of RNA expression of these targets. Inhibition of DENV replication by a test compound results in a shift of Cp's for the 3′UTR gene. On the other hand, if a test compound is toxic to the cells, a similar effect on β-actin expression will be observed. The comparative ΔΔCp method is used to calculate EC50, which is based on the relative gene expression of the target gene (3′UTR) normalized with the cellular housekeeping gene (β-actin). In addition, CC50 values are determined based on the Cp values acquired for the housekeeping gene β-actin.
(§2) The culture medium consisted of minimal essential medium supplemented with 2% of heat-inactivated fetal calf serum, 0.04% gentamycin (50 mg/mL) and 2 mM of L-glutamine. Vero cells, obtained from ECACC, were suspended in culture medium and 75 μL/well was added in 96-well plates (10000 cells/well), which already contain the antiviral compounds. […] In addition, each plate contains wells which are assigned as virus controls (containing cells and virus in the absence of compound) and cell controls (containing cells in the absence of virus and compound). Once the cells were added in the plates, the plates were incubated in a fully humidified incubator (37° C., 5% CO2) until the next day. Dengue viruses serotype-1, 2, 3 and 4 were diluted in order to obtain a Cp of ˜22-24 in the assay. Therefore, 25 μL of virus suspension, was added to all the wells containing test compound and to the wells assigned as virus control. In parallel, 25 μL of culture medium was added to the cell controls. Next, the plates were incubated for 3 days in a fully humidified incubator (37° C., 5% CO2). After 3 days, the supernatant was removed from the wells and the cells were washed twice with ice-cold PBS (−100 μL). The cell pellets within the 96-well plates were stored at −80° C. for at least 1 day. Next, RNA was extracted using the Cells-to-CT™ lysis kit, according to the manufacturer's guideline (Life Technologies). The cell lysates can be stored at −80° C. or immediately used in the reverse transcription step.
(§3) In preparation of the reverse transcription step, mix A (table 3A) was prepared and 7.57 μL/well was dispensed in a 96-well plate. After addition of 5 μL of the cell lysates, a five minute denaturation step at 75° C. was performed (table 3B). Afterwards, 7.43 μL of mix B was added (table 3C) and the reverse transcription step was initiated (table 3D) to generate cDNA.
(§4) Finally, a RT-qPCR mix was prepared, mix C (table 4A), and 22.02 μL/well was dispensed in 96-well LightCycler qPCR plates to which 3 μL of cDNA was added and the qPCR was performed according to the conditions in table 4B on a LightCycler 480.
(§5) Using the LightCycler software and an in-house LIMS system, dose response curves for each compound were calculated and the half maximal effective concentration (EC50) and the half maximal cytotoxic concentration (CC50) were determined (Tables 5-8).
(In general: Quantitative PCR measures a nucleic acid by following its amplification.)

The nature of data set [3]: in vitro. It counts as cell-based. The conditions noted are these: African green monkey, CC50. How it is done:
as §1, §2, §5

The subject of a further data set is DENV-1 strain TC974#666. The data set is described as follows: Tetravalent RT-qPCR assay Protocol A, serotype 1. It counts as cell-based. The conditions noted are these: Dengue virus, DENV1, 72 h; RT-qPCR serotype 1 TC974#666, Vero cells, day 3. The protocol:
as §1, §2, §3, §4, §5

Another data set deals with DENV-2 strain 16681. The data set can be described thus: Tetravalent RT-qPCR assay Protocol A, serotype 2. Type of data set: cell-based. The conditions noted are these: Dengue virus, DENV2, 72 h; RT-qPCR serotype 2 16681, Vero cells, day 3. The protocol: as §1, §2, §3, §4, §5
For another data set, the system named is DENV-3 strain H87. The data set can be described thus: Tetravalent RT-qPCR assay Protocol A, serotype 3. It counts as cell-based. The settings on record: Dengue virus, DENV3, 72 h; RT-qPCR serotype 3 H87, Vero cells, day 3. How it is done: as §1, §2, §3, §4, §5
A further data set has as its system Vero cells. The conditions noted are these: African green monkey.
Setting [4] is: Dengue virus, DENV2, Vero, 72 h.

What is called EC50 is the midpoint of the concentration-response curve. For `COc1cc(NC(C(=O)c2c[nH]c3cc(F)ccc23)c2ccc(F)cc2OCCO)cc(S(C)(=O)=O)c1` (racemic) [Compound 1, 1-(6-fluoro-1H-indol-3-yl)-2-(4-fluoro-2-(2-hydroxyethoxy)phenyl)-2-((3-methoxy-5-(methylsulfonyl)phenyl)amino)ethanone], in data set [1] (setting [4]), the EC50 is 1.8 nM. Moreover, the CC50 in “in vitro [2]” was found to be 7600 nM.
Take `COc1cc(NC(C(=O)c2c[nH]c3cc(Cl)ccc23)c2ccc(F)cc2OCCO)cc(S(C)(=O)=O)c1` (racemic) [Compound 2, 1-(6-chloro-1H-indol-3-yl)-2-(4-fluoro-2-(2-hydroxyethoxy)phenyl)-2-((3-methoxy-5-(methylsulfonyl)phenyl)amino)-ethanone]: the concentration for a half-maximal effect (EC50) in data set [1] (setting [4]) is 0.81 nM. The compound further returned a CC50 in the data set “in vitro [2]” of 6200 nM.
The like results for `COc1cc(NC(C(=O)c2c[nH]c3c(C)c(F)ccc23)c2ccc(F)cc2OCCO)cc(S(C)(=O)=O)c1` (racemic) [Compound 3, 2-(4-fluoro-2-(2-hydroxyethoxy)phenyl)-1-(6-fluoro-7-methyl-1H-indol-3-yl)-2-((3-methoxy-5-(methylsulfonyl)phenyl)amino)ethanone] were, in that order, 1.2 nM and 5100 nM.
Consider `COc1cc(NC(C(=O)c2c[nH]c3c(C)c(Cl)ccc23)c2ccc(F)cc2OCCO)cc(S(C)(=O)=O)c1` (racemic) [Compound 4, 1-(6-chloro-7-methyl-1H-indol-3-yl)-2-(4-fluoro-2-(2-hydroxyethoxy)phenyl)-2-((3-methoxy-5-(methylsulfonyl)phenyl)amino)ethanone], for which the half-maximal effective concentration (EC50) in data set [1] (setting [4]) is 0.37 nM. The CC50 in the data set “in vitro [2]” came to 3500 nM.
Take `COc1cc(NC(C(=O)c2c[nH]c3cc(F)c(F)cc23)c2ccc(F)cc2OCCO)cc(S(C)(=O)=O)c1` (racemic) [Compound 5, 1-(5,6-difluoro-1H-indol-3-yl)-2-(4-fluoro-2-(2-hydroxyethoxy)phenyl)-2-((3-methoxy-5-(methylsulfonyl)phenyl)-amino)ethanone]: in data set [1] (setting [4]), the concentration giving a half-maximal response (EC50) was found to be 1 nM. The compound also gave a CC50 in “in vitro [2]” of 6900 nM.
On the same counts, the results for `COc1cc(NC(C(=O)c2c[nH]c3cc(OC)c(C)cc23)c2ccc(F)cc2OCCO)cc(S(C)(=O)=O)c1` (racemic) [Compound 6, 2-(4-fluoro-2-(2-hydroxyethoxy)phenyl)-2-((3-methoxy-5-(methylsulfonyl)phenyl)amino)-1-(6-methoxy-5-methyl-1H-indol-3-yl)ethanone] are 1.4 nM and 5800 nM.
For `COc1cc(NC(C(=O)c2c[nH]c3c(F)cc(C)cc23)c2ccc(F)cc2OCCO)cc(S(C)(=O)=O)c1` (racemic) [Compound 8, 2-(4-fluoro-2-(2-hydroxyethoxy)phenyl)-1-(7-fluoro-5-methyl-1H-indol-3-yl)-2-((3-methoxy-5-(methylsulfonyl)phenyl)amino)ethanone], the half-maximal effective concentration (EC50) in data set [1] (setting [4]) turned out to be 2.3 nM. For the same compound, the CC50 in the data set “in vitro [2]” came out at 6900 nM.
On the same counts, the results for `COc1cc(NC(C(=O)c2c[nH]c3cc(OC)c(OC(F)(F)F)cc23)c2ccc(F)cc2OCCO)cc(S(C)(=O)=O)c1` (racemic) [Compound 11, 2-(4-fluoro-2-(2-hydroxyethoxy)phenyl)-2-((3-methoxy-5-(methyl-sulfonyl)phenyl)amino)-1-(6-methoxy-5-(trifluoromethoxy)-1H-indol-3-yl)ethanone] are 0.48 nM and 9000 nM.
On the same counts, the results for `COc1cc(NC(C(=O)c2c[nH]c3c(C)cc(OC(F)(F)F)cc23)c2ccc(F)cc2OCCO)cc(S(C)(=O)=O)c1` (racemic) [Compound 12, 2-(4-fluoro-2-(2-hydroxyethoxy)phenyl)-2-((3-methoxy-5-(methylsulfonyl)phenyl)amino)-1-(7-methyl-5-(trifluoromethoxy)-1H-indol-3-yl)ethanone] are 0.22 nM and 3700 nM.
In the case of `COc1cc(NC(C(=O)c2c[nH]c3cc(F)c(C)cc23)c2ccc(F)cc2OCCO)cc(S(C)(=O)=O)c1` (single isomer, unassigned) [Compound 7A, 2-(4-fluoro-2-(2-hydroxyethoxy)phenyl)-1-(6-fluoro-5-methyl-1H-indol-3-yl)-2-((3-methoxy-5-(methylsulfonyl)phenyl)amino)ethanone], the concentration for a half-maximal effect (EC50) with DENV-4 strain H241 stood at 120 nM; in data set [1], 0.54 nM; in the data set on DENV-1 strain TC974#666, 1.3 nM; in the data set on DENV-2 strain 16681, 0.77 nM; in the data set on DENV-3 strain H87 it was 20 nM. For the same compound, in the data set “in vitro [3]”, the CC50 at 3 days was more than 2400 nM. The same compound had a CC50 in the data set with Vero cells of 3100 nM.
Turning to `COc1cc(NC(C(=O)c2c[nH]c3c(F)cc(C)cc23)c2ccc(F)cc2OCCO)cc(S(C)(=O)=O)c1` (single isomer, unassigned) [Compound 8A, 2-(4-fluoro-2-(2-hydroxyethoxy)phenyl)-1-(7-fluoro-5-methyl-1H-indol-3-yl)-2-((3-methoxy-5-(methylsulfonyl)phenyl)amino)ethanone], the EC50 with DENV-4 strain H241 worked out at 220 nM; in data set [1], 1.1 nM; in the data set with DENV-1 strain TC974#666, 2.3 nM; in the data set with DENV-2 strain 16681 it was 1.4 nM; with DENV-3 strain H87, 36 nM. The CC50 in the data set with Vero cells is 3400 nM.
